The values below come from PubChem BioAssay AID652006 (Sanford-Burnham Center for Chemical Genomics, 2013).

For this assay, the target named is Tyrosine-protein phosphatase non-receptor type 22 (Homo sapiens) (UniProt Q9Y2R2). Put plainly: LYP phosphatase inhibition for selectivity, dose response, selectivity assay for LMPTP inhibitor project, biochemical, fluorescence, LYP catalytic domain (AID 652006). To be noted: His-LYP catalytic domain, OMFP fluorescence, 50 min.

Active and inactive are the calls of the source.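 Rule for the calls: active = compounds that inhibit the LYP-1 phosphatase with IC50 at or below 20 µM; inactive = the rest.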 A value given as a limit tells only on which side of the number the result lay.

Sequence of Tyrosine-protein phosphatase non-receptor type 22 (Homo sapiens) (Q9Y2R2 whole entry, looked up, the tested form may be a part): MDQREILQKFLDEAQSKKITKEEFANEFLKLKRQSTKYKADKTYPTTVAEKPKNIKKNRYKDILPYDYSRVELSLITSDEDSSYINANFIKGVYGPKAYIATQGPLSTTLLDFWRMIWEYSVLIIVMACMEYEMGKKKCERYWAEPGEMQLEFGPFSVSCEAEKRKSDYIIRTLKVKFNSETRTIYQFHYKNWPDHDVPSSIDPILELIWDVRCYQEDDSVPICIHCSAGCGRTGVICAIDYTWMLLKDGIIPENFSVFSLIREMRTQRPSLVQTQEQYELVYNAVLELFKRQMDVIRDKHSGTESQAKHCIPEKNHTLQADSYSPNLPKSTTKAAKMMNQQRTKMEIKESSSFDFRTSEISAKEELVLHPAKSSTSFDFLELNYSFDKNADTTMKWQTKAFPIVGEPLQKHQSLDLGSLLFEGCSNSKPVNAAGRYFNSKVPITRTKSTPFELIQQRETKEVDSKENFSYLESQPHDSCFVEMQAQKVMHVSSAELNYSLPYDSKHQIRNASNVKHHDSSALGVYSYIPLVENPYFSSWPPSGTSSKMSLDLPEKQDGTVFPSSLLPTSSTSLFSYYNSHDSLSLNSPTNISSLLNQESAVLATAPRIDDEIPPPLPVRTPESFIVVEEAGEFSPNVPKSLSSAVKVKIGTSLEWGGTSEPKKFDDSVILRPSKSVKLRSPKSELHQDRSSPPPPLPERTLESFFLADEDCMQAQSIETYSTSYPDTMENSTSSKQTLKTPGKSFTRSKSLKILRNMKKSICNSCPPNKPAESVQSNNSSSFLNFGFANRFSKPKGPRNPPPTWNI

Consider `Clc1cccc(Cl)c1Cn1cnc(=NCc2ccco2)c2[nH]cnc21`, for which the IC50 – broadly, the concentration needed to halve the response being measured – is > 80 µM (inactive).
